Assay results taken from ChEMBL document CHEMBL1201861, “Genomics of Drug Sensitity in Cancer screening data, Wellcome Trust Sanger Institute”.

Assays:
Assay in all cases: cells
Assay type in all cases: functional, cell-based, Homo sapiens
[1] = system: COLO-792; conditions: Homo sapiens, COLO-792
Description: SANGER: Inhibition of human COLO-792 cell growth in a cell viability assay.

[2] = system: CaR-1; conditions: Homo sapiens, CaR-1;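 note: growth inhibition of human CaR-1 cancer cells, read out with a cell viability assay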
Description: SANGER: Inhibition of human CaR-1 cell growth in a cell viability assay.

[3] = system: Capan-2; conditions: Homo sapiens, Capan-2;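 note: Capan-2 cell growth inhibition, read out with a viability assay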
Description: SANGER: Inhibition of human Capan-2 cell growth in a cell viability assay.

[4] = system: ChaGo-K-1; conditions: Homo sapiens, ChaGo-K-1;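 note: growth inhibition of ChaGo-K-1 cells, read out with a cell viability assay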
Description: SANGER: Inhibition of human ChaGo-K-1 cell growth in a cell viability assay.

[5] = system: DMS-153; conditions: Homo sapiens, DMS-153
Description: SANGER: Inhibition of human DMS-153 cell growth in a cell viability assay.

[6] = system: DMS-273; conditions: Homo sapiens, DMS-273
Description: SANGER: Inhibition of human DMS-273 cell growth in a cell viability assay.

[7] = system: EHEB; conditions: Homo sapiens, EHEB;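 note: growth inhibition of human EHEB cells, read out with a cell viability assay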
Description: SANGER: Inhibition of human EHEB cell growth in a cell viability assay.

[8] = system: FaDu; conditions: Homo sapiens, FaDu;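 note: cell viability readout of growth inhibition in FaDu cells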
Description: SANGER: Inhibition of human FADU cell growth in a cell viability assay.

[9] = system: G-401; conditions: Homo sapiens, G-401
Description: SANGER: Inhibition of human G-401 cell growth in a cell viability assay.

[10] = system: GMS-10; conditions: Homo sapiens, GMS-10;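 note: growth inhibition of GMS-10 cells, read out as cell viability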
Description: SANGER: Inhibition of human GMS-10 cell growth in a cell viability assay.

[11] = system: HCC1954; conditions: Homo sapiens, HCC1954;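 note: growth inhibition of human HCC1954 cells, read out with a cell viability assay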
Description: SANGER: Inhibition of human HCC1954 cell growth in a cell viability assay.

[12] = system: HN; conditions: Homo sapiens, HN
Description: SANGER: Inhibition of human HN cell growth in a cell viability assay.

[13] = system: HOS; conditions: Homo sapiens, HOS;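 note: growth inhibition of human HOS cells, read out with a cell viability assay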
Description: SANGER: Inhibition of human HOS cell growth in a cell viability assay.

[14] = system: HT-1080; conditions: Homo sapiens, HT-1080
Description: SANGER: Inhibition of human HT-1080 cell growth in a cell viability assay.

[15] = system: HT55; conditions: Homo sapiens, HT55;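 note: cell viability readout measuring growth inhibition of human HT55 cells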
Description: SANGER: Inhibition of human HT55 cell growth in a cell viability assay.

[16] = system: Hs-578T; conditions: Homo sapiens, Hs-578T
Description: SANGER: Inhibition of human Hs-578-T cell growth in a cell viability assay.

[17] = system: KARPAS-422; conditions: Homo sapiens, KARPAS-422
Description: SANGER: Inhibition of human KARPAS-422 cell growth in a cell viability assay.

[18] = system: KYSE-180; conditions: Homo sapiens, KYSE-180;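 note: growth inhibition of KYSE-180 cells, read out with a cell viability assay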
Description: SANGER: Inhibition of human KYSE-180 cell growth in a cell viability assay.

[19] = system: KYSE-450; conditions: Homo sapiens, KYSE-450;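 note: cell growth inhibition measured by a viability assay in human KYSE-450 cells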
Description: SANGER: Inhibition of human KYSE-450 cell growth in a cell viability assay.

[20] = system: LU-165; conditions: Homo sapiens, LU-165
Description: SANGER: Inhibition of human LU-165 cell growth in a cell viability assay.

[21] = system: MC-IXC; conditions: Homo sapiens, MC-IXC;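 note: growth inhibition of MC-IXC cells, read out with a cell viability assay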
Description: SANGER: Inhibition of human MC-IXC cell growth in a cell viability assay.

[22] = system: MDA-MB-157; conditions: Homo sapiens, MDA-MB-157
Description: SANGER: Inhibition of human MDA-MB-157 cell growth in a cell viability assay.

[23] = system: NB1; conditions: Homo sapiens, NB1;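 note: reduction of NB1 cell proliferation, read out with a viability assay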
Description: SANGER: Inhibition of human NB1 cell growth in a cell viability assay.

[24] = system: NCI-H1623; conditions: Homo sapiens, NCI-H1623;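 note: cell viability assay used as the read-out for growth inhibition of NCI-H1623 cells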
Description: SANGER: Inhibition of human NCI-H1623 cell growth in a cell viability assay.

[25] = system: NCI-H1693; conditions: Homo sapiens, NCI-H1693;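 note: growth inhibition of the human cell line, read out with a cell viability assay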
Description: SANGER: Inhibition of human NCI-H1693 cell growth in a cell viability assay.

[26] = system: NCI-H1703; conditions: Homo sapiens, NCI-H1703;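 note: growth inhibition of NCI-H1703 cells, read out via a cell viability assay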
Description: SANGER: Inhibition of human NCI-H1703 cell growth in a cell viability assay.

[27] = system: NCI-H1792; conditions: Homo sapiens, NCI-H1792;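 note: growth inhibition of human NCI-H1792 cells, read out as cell viability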
Description: SANGER: Inhibition of human NCI-H1792 cell growth in a cell viability assay.

[28] = system: NCI-H2122; conditions: Homo sapiens, NCI-H2122;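 note: growth inhibition of the cells, read out with a cell viability assay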
Description: SANGER: Inhibition of human NCI-H2122 cell growth in a cell viability assay.

[29] = system: NCI-H2141; conditions: Homo sapiens, NCI-H2141;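 note: growth inhibition of human NCI-H2141 cells, read out with a cell viability assay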
Description: SANGER: Inhibition of human NCI-H2141 cell growth in a cell viability assay.

[30] = system: NCI-H2196; conditions: Homo sapiens, NCI-H2196;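 note: cell viability assay used as the readout of growth inhibition in NCI-H2196 cells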
Description: SANGER: Inhibition of human NCI-H2196 cell growth in a cell viability assay.

[31] = system: NCI-H460; conditions: Homo sapiens, NCI-H460;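 note: cell viability assay scoring growth inhibition of human NCI-H460 cells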
Description: SANGER: Inhibition of human NCI-H460 cell growth in a cell viability assay.

[32] = system: NCI-H522; conditions: Homo sapiens, NCI-H522;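 note: cell viability assay measuring growth inhibition of human NCI-H522 cells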
Description: SANGER: Inhibition of human NCI-H522 cell growth in a cell viability assay.

[33] = system: NCI-H64; conditions: Homo sapiens, NCI-H64;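 note: growth inhibition of NCI-H64 cells, read out with a cell viability assay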
Description: SANGER: Inhibition of human NCI-H64 cell growth in a cell viability assay.

[34] = system: SNU-16; conditions: Homo sapiens, SNU-16;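 note: growth inhibition of human SNU-16 cells, determined with a cell viability readout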
Description: SANGER: Inhibition of human NCI-SNU-16 cell growth in a cell viability assay.

[35] = system: OE19; conditions: Homo sapiens, OE19;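 note: growth inhibition of OE19 cells, measured through a cell viability read-out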
Description: SANGER: Inhibition of human OE19 cell growth in a cell viability assay.

[36] = system: RVH-421; conditions: Homo sapiens, RVH-421
Description: SANGER: Inhibition of human RVH-421 cell growth in a cell viability assay.

[37] = system: SK-OV-3; conditions: Homo sapiens, SK-OV-3;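 note: growth inhibition of SK-OV-3 human cells, read out with a cell viability assay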
Description: SANGER: Inhibition of human SK-OV-3 cell growth in a cell viability assay.

[38] = system: SW-620; conditions: Homo sapiens, SW-620;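 note: growth inhibition of human SW-620 cells, measured by a cell viability assay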
Description: SANGER: Inhibition of human SW620 cell growth in a cell viability assay.

[39] = system: T-24; conditions: Homo sapiens, T-24;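 note: growth inhibition of T-24 cells, read out with a cell viability assay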
Description: SANGER: Inhibition of human T-24 cell growth in a cell viability assay.

[40] = system: A2780; conditions: Homo sapiens, A2780;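 note: growth inhibition of A2780 cells, read out with a cell viability assay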
Description: SANGER: Inhibition of human A2780 cell growth in a cell viability assay.

[41] = system: BC-3; conditions: Homo sapiens, BC-3;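 note: cell viability assay measuring growth inhibition of human BC-3 cells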
Description: SANGER: Inhibition of human BC-3 cell growth in a cell viability assay.

[42] = system: CAL-12T; conditions: Homo sapiens, CAL-12T;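 note: growth inhibition of human CAL-12T cells, read out with a cell viability assay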
Description: SANGER: Inhibition of human CAL-12T cell growth in a cell viability assay.

[43] = system: CAL-54; conditions: Homo sapiens, CAL-54;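 note: growth inhibition of CAL-54 cells, read out by a viability measurement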
Description: SANGER: Inhibition of human CAL-54 cell growth in a cell viability assay.

[44] = system: UMUC3; conditions: Homo sapiens, UMUC3;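 note: growth inhibition of human UM-UC-3 cells, read out with a cell viability assay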
Description: SANGER: Inhibition of human UM-UC-3 cell growth in a cell viability assay.

[45] = system: WSU-NHL; conditions: Homo sapiens, WSU-NHL;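 note: growth inhibition of human WSU-NHL cells, read out with a cell viability assay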
Description: SANGER: Inhibition of human WSU-NHL cell growth in a cell viability assay.

[46] = system: COLO-680N; conditions: Homo sapiens, COLO-680N;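 note: cell viability assay used to measure inhibition of COLO-680N cell growth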
Description: SANGER: Inhibition of human COLO-680N cell growth in a cell viability assay.

How did the IC50 [1] turn out when `COc1cccc2c1C(=O)c1c(O)c3c(c(O)c1C2=O)C[C@@](O)(C(=O)CO)C[C@@H]3O[C@H]1C[C@H](N)[C@H](O)[C@H](C)O1` [DOXORUBICIN] was run?
Its IC50 is over 1020 nM.

And the IC50 [2]?
The IC50 was over 1020 nM.

What about the IC50 [3] of the same compound?
Its IC50 is 898 nM.

And the IC50 [4]?
The IC50 was 108 nM.

What about the IC50 [5] of the same compound?
Its IC50 is 698 nM.

What about the IC50 [6] of the same compound?
The IC50 was 78.9 nM.

And the IC50 [7]?
The IC50 was 113 nM.

What about the IC50 [8] of the same compound?
The IC50 was 102 nM.

What about the IC50 [9] of the same compound?
The IC50 was 30.2 nM.

What about the IC50 [10] of the same compound?
The IC50 was over 1020 nM.

What about the IC50 [11] of the same compound?
Its IC50 is 541 nM.

And the IC50 [12]?
The IC50 was 354 nM.

What about the IC50 [13] of the same compound?
The IC50 was 45.3 nM.

What about the IC50 [14] of the same compound?
Its IC50 is 14.8 nM.

And the IC50 [15]?
The IC50 was over 1020 nM.

And the IC50 [16]?
The IC50 was over 1020 nM.

What about the IC50 [17] of the same compound?
Its IC50 is 193 nM.

And the IC50 [18]?
Its IC50 is 59.8 nM.

What about the IC50 [19] of the same compound?
The IC50 was 44.7 nM.

What about the IC50 [20] of the same compound?
Its IC50 is 639 nM.

What about the IC50 [21] of the same compound?
Its IC50 is 67.9 nM.

And the IC50 [22]?
The IC50 was 499 nM.

What about the IC50 [23] of the same compound?
The IC50 was 46 nM.

And the IC50 [24]?
The IC50 was 605 nM.

And the IC50 [25]?
Its IC50 is 290 nM.

And the IC50 [26]?
The IC50 was 126 nM.

And the IC50 [27]?
Its IC50 is 572 nM.

And the IC50 [28]?
The IC50 was 37.9 nM.

And the IC50 [29]?
Its IC50 is 574 nM.

And the IC50 [30]?
Its IC50 is 229 nM.

What about the IC50 [31] of the same compound?
Its IC50 is 12.7 nM.

What about the IC50 [32] of the same compound?
The IC50 was 51.9 nM.

What about the IC50 [33] of the same compound?
Its IC50 is 133 nM.

And the IC50 [34]?
The IC50 was over 1020 nM.

And the IC50 [35]?
The IC50 was 200 nM.

And the IC50 [36]?
The IC50 was 169 nM.

What about the IC50 [37] of the same compound?
The IC50 was 50.1 nM.

What about the IC50 [38] of the same compound?
The IC50 was 26.6 nM.

What about the IC50 [39] of the same compound?
The IC50 was 245 nM.

What about the IC50 [40] of the same compound?
Its IC50 is 68.8 nM.

And the IC50 [41]?
Its IC50 is 166 nM.

What about the IC50 [42] of the same compound?
Its IC50 is 20.6 nM.

What about the IC50 [43] of the same compound?
Its IC50 is 301 nM.

What about the IC50 [44] of the same compound?
The IC50 was 86 nM.

What about the IC50 [45] of the same compound?
Its IC50 is 155 nM.

And the IC50 [46]?
Its IC50 is 33.9 nM.

For `Nc1ccn([C@@H]2O[C@H](CO)[C@@H](O)C2(F)F)c(=O)n1` [GEMCITABINE], which IC50 [1] is on record?
The IC50 was over 1020 nM.

What about the IC50 [2] of the same compound?
The IC50 was 551 nM.

And the IC50 [3]?
Its IC50 is over 1020 nM.

And the IC50 [4]?
Its IC50 is 696 nM.

And the IC50 [5]?
The IC50 was over 1020 nM.

What about the IC50 [6] of the same compound?
The IC50 was 3.07 nM.

And the IC50 [7]?
The IC50 was 227 nM.

What about the IC50 [8] of the same compound?
The IC50 was 105 nM.

What about the IC50 [9] of the same compound?
The IC50 was 55.2 nM.

What about the IC50 [10] of the same compound?
Its IC50 is over 1020 nM.

What about the IC50 [11] of the same compound?
The IC50 was over 1020 nM.

And the IC50 [12]?
Its IC50 is 54.1 nM.

What about the IC50 [13] of the same compound?
Its IC50 is under 4 nM.

What about the IC50 [14] of the same compound?
Its IC50 is 5.83 nM.

What about the IC50 [15] of the same compound?
The IC50 was over 1020 nM.

What about the IC50 [16] of the same compound?
The IC50 was over 1020 nM.

What about the IC50 [17] of the same compound?
The IC50 was 85.8 nM.

And the IC50 [18]?
Its IC50 is 12.8 nM.

What about the IC50 [19] of the same compound?
Its IC50 is 6.32 nM.

And the IC50 [20]?
Its IC50 is over 1020 nM.

And the IC50 [21]?
The IC50 was 2.26 nM.

And the IC50 [22]?
Its IC50 is over 1020 nM.

And the IC50 [23]?
Its IC50 is 488 nM.

And the IC50 [24]?
Its IC50 is 187 nM.

And the IC50 [25]?
The IC50 was 46.1 nM.

What about the IC50 [26] of the same compound?
Its IC50 is 31.8 nM.

And the IC50 [27]?
The IC50 was 259 nM.

What about the IC50 [28] of the same compound?
Its IC50 is under 4 nM.

And the IC50 [29]?
The IC50 was 644 nM.

What about the IC50 [30] of the same compound?
The IC50 was over 1020 nM.

What about the IC50 [31] of the same compound?
The IC50 was 13.5 nM.

What about the IC50 [32] of the same compound?
The IC50 was 4.34 nM.

What about the IC50 [33] of the same compound?
The IC50 was 151 nM.

And the IC50 [34]?
Its IC50 is over 1020 nM.

What about the IC50 [35] of the same compound?
Its IC50 is 702 nM.

And the IC50 [36]?
The IC50 was over 1020 nM.

What about the IC50 [37] of the same compound?
The IC50 was 38.7 nM.

What about the IC50 [38] of the same compound?
Its IC50 is 1.35 nM.

What about the IC50 [39] of the same compound?
Its IC50 is over 1020 nM.

And the IC50 [40]?
The IC50 was under 4 nM.

And the IC50 [41]?
The IC50 was 221 nM.

And the IC50 [42]?
The IC50 was 1.08 nM.

And the IC50 [43]?
The IC50 was 298 nM.

What about the IC50 [44] of the same compound?
Its IC50 is 16.2 nM.

What about the IC50 [45] of the same compound?
The IC50 was 50.3 nM.

And the IC50 [46]?
Its IC50 is 75.5 nM.

What does the source list for `O=C(O)c1ccc(-c2c[nH]c3ncc(-c4ccccc4)cc23)cc1C1CCCC1` [GSK-650394]?
IC50 [1]: > 16000 nM; IC50 [2]: > 16000 nM; IC50 [3]: > 16000 nM; IC50 [4]: > 16000 nM; IC50 [5]: > 16000 nM; IC50 [6]: > 16000 nM; IC50 [7]: > 16000 nM; IC50 [8]: > 16000 nM; IC50 [9]: > 16000 nM; IC50 [10]: > 16000 nM; IC50 [11]: > 16000 nM; IC50 [12]: > 16000 nM; IC50 [13]: 1970 nM; IC50 [14]: 5490 nM; IC50 [15]: > 16000 nM; IC50 [16]: > 16000 nM; IC50 [17]: > 16000 nM; IC50 [18]: 2060 nM; IC50 [19]: 5600 nM; IC50 [20]: > 16000 nM; IC50 [21]: > 16000 nM; IC50 [22]: > 16000 nM; IC50 [23]: > 16000 nM; IC50 [24]: > 16000 nM; IC50 [25]: > 16000 nM; IC50 [26]: > 16000 nM; IC50 [27]: > 16000 nM; IC50 [28]: 3330 nM; IC50 [29]: > 16000 nM; IC50 [30]: > 16000 nM; IC50 [31]: 3400 nM; IC50 [32]: 13000 nM; IC50 [33]: > 16000 nM; IC50 [34]: > 16000 nM; IC50 [35]: > 16000 nM; IC50 [36]: > 16000 nM; IC50 [37]: > 16000 nM; IC50 [38]: 1930 nM; IC50 [39]: > 16000 nM; IC50 [40]: > 16000 nM; IC50 [41]: 1870 nM; IC50 [42]: 2710 nM; IC50 [43]: > 16000 nM; IC50 [44]: 9580 nM; IC50 [45]: > 16000 nM; IC50 [46]: > 16000 nM
